Key:
[1] = Cytotoxicity against human DLD1 cells overexpressing PRL3 assessed as cell viability at 10 ug/ml after 24 hrs by WST-1 assay relative to control; assay type: cell-based; details: DLD-1 cells overexpressing PRL3, read-out: Activity
[2] = test system: DLD-1; experiment: Antimigratory activity against human DLD1 cells overexpressing PRL3 at 10 ug/ml after 20 hrs by crystal violet staining-based light microscopic analysis relative to control; assay type: functional; details: DLD-1, 20 h
[3] = biological target: Protein tyrosine phosphatase type IVA 3 (Homo sapiens, UniProt O75365); experiment: Inhibition of human His6-tagged full length PRL3 assessed as inhibition of DiFMUP dephosphorylation at 5 ug/ml relative to control
Protein tyrosine phosphatase type IVA 3, sequence (O75365 whole entry): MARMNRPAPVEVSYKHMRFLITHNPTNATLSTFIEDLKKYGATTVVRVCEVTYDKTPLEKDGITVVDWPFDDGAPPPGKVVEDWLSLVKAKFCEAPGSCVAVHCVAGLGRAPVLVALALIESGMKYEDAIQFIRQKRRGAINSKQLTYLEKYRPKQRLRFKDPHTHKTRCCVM

SMILES | viability at 24 h, 10 ug/ml [1] [%] | inhibition at 10 µg/mL [2] [%] | inhibition [3] [%]
COc1ccccc1/C=C/C=C1\SC(=S)NC1=O | 98.8 | 69 | 41.7
O=C1NC(=S)S/C1=C\C=C\c1ccccc1OC(=O)c1ccccc1 | 99.2 | 40 | 30.6
O=C1NC(=S)S/C1=C\C=C\c1ccccc1Cl | 81.9 | 80 | 53.9
Cc1ccccc1COc1ccccc1/C=C/C=C1\SC(=S)NC1=O | 75.5 | 73 | 52.8
O=C1NC(=S)S/C1=C\C=C\c1ccccc1O | 96.3 | 65 | 51.9
O=C1NC(=S)S/C1=C\C=C\c1cc(Br)ccc1OCc1ccccc1Br | 72.3 | 71 | 40.3
O=C1NC(=S)S/C1=C\C=C\c1ccccc1OCc1ccccc1 | 87.9 | 65 | 49.5
O=C1NC(=S)S/C1=C\C=C\c1ccccc1 | 96.6 | 81 | 37.4
O=C1NC(=S)S/C1=C\C=C\c1ccccc1OCc1ccccc1C(F)(F)F | 41.5 | 80 | 40.8
O=C1NC(=S)S/C1=C\C=C\c1ccccc1NC(=O)c1ccccc1 | 97.1 | 68 | 35.2
COc1cccc(COc2ccccc2/C=C/C=C2\SC(=S)NC2=O)c1 | 87.1 | 82 | 52.9
O=C1NC(=S)S/C1=C\C=C\c1cccnc1 | 105 | 45 | 47.1
O=C1NC(=S)S/C1=C\C=C\c1ccccc1OCc1ccccc1Br | 78.8 | 78 | 63.1
O=C1NC(=S)S/C1=C\C=C\c1ccccc1OCc1ccncc1 | 96.5 | 62 | 39.4
O=C1NC(=S)S/C1=C\C=C\c1ccccc1OS(=O)(=O)c1ccccc1 | 83.1 | 80 | 64.2
O=C1NC(=O)/C(=C/C=C/c2ccccc2OCc2ccccc2Br)S1 | 37.7 | 50 | 22.5

— ChEMBL document CHEMBL2396625 (Bioorg Med Chem Lett, 2013)
